# According to patent US7919577B2, “Adrenocorticotropic hormone analogs and related methods” (Colorado Seminary, priority 2004, dated 2011):
# No end group written: not given here.
# Tested on: dexamethasone-suppressed male FVB/N mice
# Assay: in vivo Serum Corticosteroid Inhibition Assay (Example 2)
# Parameters: species or system mouse
# Conditions: for serum corticosterone at 180 minutes: blood one hour later; for reduction in serum corticosterone levels: ACTH alone normalized to 100%, FIG. 2; for corticosterone induction as percent of that of wildtype ACTH: 1 hour after last peptide injection
# Procedure: The in vivo Serum Corticosteroid Inhibition Assay can include sequential administration of the test compound and the corticosteroid-producing compound by the following steps: first, an agent to suppress endogenous ACTH production was administered to a mouse subject, such as an intraperitoneal injection of dexamethasone; second, after waiting a suitable period of time for suppression of endogenous ACTH production (e.g., 1.5-2.0 hours), a test compound was administered to the mouse by a suitable method, such as intraperitoneal injection; third, after waiting a suitable period of time (e.g., 1 hour) for action of the test compound, a compound with corticosteroid-producing activity can be administered to the mouse by a suitable method, such as intraperitoneal injection; and fourth, after waiting a suitable period of time for the biological activity of both administered compounds to occur (e.g., 1 hour), a blood sample was taken from the subject and the level of serum corticosterone was determined by a suitable method, such as a competitive radioimmunoassay using ^125I RIA kit (ICN, Costa Mesa, Calif.). Optionally, steps two and three can be reversed (administering the corticosteroid-producing compound first, followed by administration of the test compound). The in vivo Serum Corticosteroid Inhibition Assay can also include co-administration of the test compound and the corticosteroid-producing compound by the following steps: first, an agent to suppress endogenous ACTH production was administered to a mouse subject, such as an intraperitoneal injection of dexamethasone; second, after waiting a suitable period of time for suppression of endogenous ACTH production (e.g., 1.5-2.0 hours), the corticosteroid-producing compound and a test compound were co-administered to the mouse by a suitable method, such as intraperitoneal injection; and third, after waiting a suitable period of time for the biological activity of both administered compounds to occur (e.g., 1 hour), a blood sample was taken from the subject and the level of serum corticosterone was determined by a suitable method, such as a competitive radioimmunoassay using ^125I RIA kit (ICN, Costa Mesa, Calif.). Also, in some embodiments, the first step in any in vivo Serum Corticosteroid Inhibition Assay can be replaced by a measurement of the initial endogenous corticosteroid or corticosteroid level in the blood of the subject in the manner of step four, instead of administering the agent to suppress ACTH production. Example 2 describes murine in vivo Serum Corticosteroid Inhibition Assays in detail.
# A series of separate in vivo Serum Corticosteroid Inhibition Assays were performed to identify ACTH analogs that inhibit ACTH adrenal hormone production in vivo. The serum corticosterone levels of dexamethasone-suppressed mice were measured as described in Example 2 after administration of (1) ACTH (corticosteroid-producing compound), (2) an ACTH analog (test compound) followed by subsequent administration of ACTH, (3) a combination of ACTH and the ACTH analog and (4) the ACTH analog alone.
# The in vivo Serum Corticosteroid Inhibition Assay was performed according the following method. The ACTH analog test compounds, such as those showing low activities in Example 1, were tested for their abilities to inhibit adrenal hormone production induced by unmodified ACTH.
# First, two to three month-old male FVB/N mice from our colony, five per group, were injected intraperitoneally with dexamethasone (0.4 mg/0.1 ml PBS per mouse; Sigma, St. Louis, Mo.) to suppress their endogenous ACTH production.
# Second, ninety to one hundred twenty minutes later, animals were injected subcutaneously between the shoulder blades with wild type ACTH and/or test ACTH analog peptides (1 μg/0.1 mL PBS/0.5% BSA) or with vehicle alone (0.1 mL PBS/0.5% BSA). […]
substance,measurement,setting,value
N-Ser^1-Tyr-Ser-Met-Glu^5-His-Phe-Arg-Trp-Gly^10-Lys-Pro-Val-Gly-Lys^15-Arg-Ala-Ala-Trp-Val^20-Lys-Val-Tyr-Pro-Ac (SYSMEHFRWGKPVGKRAAWVKVYP; not fully specified; printed as N-Ser1-Tyr-Ser-Met-Glu5-His-Phe-Arg-Trp-Gly10-Lys-Pro-Val-Gly-Lys15-Arg-Ala-Ala-Trp-Val20-Lys-Val-Tyr-Pro-Ac) [AT814],serum corticosterone at 180 minutes,"ACTH analog alone 120 minutes after dexamethasone (AT), listed as (KKRRP15-19KRAAW) mACTH(1-24)",about 7±7 ng/mL
same,serum corticosterone at 180 minutes,"ACTH analog alone 120 minutes after dexamethasone (AT), listed as (KKRRP15-19KRAAW)mACTH(1-24)",7 ± 7 ng/mL
same,serum corticosterone at 180 minutes,"ACTH analog at 90 minutes, mACTH(1-24) at 120 minutes after dexamethasone (AT90-ACTH120), listed as (KKRRP15-19KRAAW) mACTH(1-24)",175 ± 27 ng/mL
same,serum corticosterone at 180 minutes,"ACTH analog at 90 minutes, mACTH(1-24) at 120 minutes after dexamethasone (AT90-ACTH120), listed as (KKRRP15-19KRAWW)mACTH(1-24)",175 ± 27 ng/mL
same,serum corticosterone at 180 minutes,ACTH analog together with mACTH(1-24) at 120 minutes after dexamethasone ((AT + ACTH)120),51 ± 8 ng/mL
same,serum corticosterone at 180 minutes,"ACTH analog together with mACTH(1-24) at 120 minutes after dexamethasone ((AT + ACTH)120), listed as (KKRRP15-19KRAAW)mACTH(1-24)",51 ± 8 ng/mL
same,reduction in serum corticosterone levels,analog 30 minutes before ACTH,~65%
same,reduction in serum corticosterone levels,analog concurrently with ACTH,~90%
same,corticosterone induction as percent of that of wildtype ACTH,applied 30 minutes before the ACTH injection,35%
same,corticosterone induction as percent of that of wildtype ACTH,applied at the same time as the ACTH injection,10%
